Data reported in patent US5405760A, “Process for producing recombinant McrBC endonuclease and cleavage of methylated DNA” (New England Biolabs, Inc., priority 1992, dated 1995).

How the values were obtained:
[1] = Properties of the McrBC cleavage reaction (pH, ratio of components); type: biochemical
Text: (a) pH optimum: Activity is detectable when the pH of the reaction is lowered to about 5.8.
Higher or lower ratios reduce cleavage activity.

[2] = test system: DNA Escherichia coli W3110(ppvuIIM1.9); experiment: McrBC digestion of agarose-embedded M.PvuII-modified cellular DNA; type: biochemical
Experimental: (§1) Accordingly, the DNA Escherichia coli W3110(ppvuIIM1.9), which is modified in the sequence CAGCTG at the N^4 position of the central cytosine to generate the sequence CAGm4CTG, was treated with. McrBC in the presence of GTP following embedding of the cultured cells in agarose and subsequent lysis in situ to release the DNA, by standard procedures for in situ digestion. DNA carrying this modification was cleaved into many fragments of sizes smaller than 50 kb. From this evidence it was concluded that McrBC recognizes sequences containing N^4 C. In addition, DNA from bacteriophages T4αgt βgt dam^h dam1 and T6αgt, containing 5-hydroxymethylcytosine in place of cytosine and devoid of N^6 -methyladenine, was first treated with EcoRI or SspI and then treated with McrBC in the presence of GTP. Both of these DNAs were cleaved to produce many fragments smaller than 700 bp. From this evidence it was concluded that McrBC recognizes sequences containing hm5C as well m5C and N^4 -methylcytosine.

methylated DNA = experiment: McrBC cleavage of plasmid and phage DNA modified by methylases; type: biochemical
Text: The recognition sequence of the endonuclease of the present invention may be determined by mapping the locations of McrBC cleavage in various DNAs and comparing the DNA sequences of these regions for homology.
McrBC was also found to cleave M.AluI-methylated doublestranded pUC19 linearized at the AflIII site to generate fragments of 2.25 kb, 1.9 kb, 1.75 kb, 1.275 kb, 1.15 kb, 1.05 kb 0.94 kb, 0.25 kb and 0.27 kb, consistent with cleavage near nucleotides 250, 2300, 1350 and 325. McrBC also cleaves the following: M.HaeIII-methylated (GGmCC) pUC19 linearized at the AflIII site to generate fragments of 2.25 kb, 1.8 kb, 1.25 kb, 1.05 kb, 0.94 kb, 0.5 kb, and 0.45 kb, consistent with cleavage near nucleotide 1600, 2500, 350 and 550; M.HhaI-methylated (GmCGC) pBR322 near nucleotides 434-494 and near nucleotides 594-548; M.HhaI-methylated pUC19 linearized at the AflIII site to generate bands of 2.25 kb, 1.9 kb, 1.15 kb, and 0.94 kb, consistent with cleavage near nucleotides 0 or 60, 2350, 1500 and 620; M.MspI-modified (mCCGG) pUC19 linearized at the AflIII site to generate bands of 1.6 kb, 1.5 kb, 1.0 kb and 0.9 kb, consistent with cleavage near nucleotides 1500 and 1600. In addition, McrBC degrades the following: M.SssI modified (mCG) pBR322 and M.SssI modified pUC19 DNA; agarose-embedded cellular DNA of Escherichia coli carrying ppvuIIM1.9, which is M.PvuII modified ([…]).
pBR322 was modified by M.AluI by standard methods, cleaved with ClaI, and resuspended at 0.1 μg/μl. This substrate was recleaved with one of four restriction endonucleases that cleave once in pBR322 (AflIII, NdeI, ScaI, or SspI). These reactions (0.4 μg DNA in each, cleaved in a volume of 20 μl with the appropriate buffer supplied by New England Biolabs) were phenol extracted, precipitated by addition of ethanol in the presence of salt, and resuspended in dH2 O. Half of each reaction (0.2 μg) was digested with McrBC (1 μl each of McrBL and McrC; McrBL was similar to McrBL fraction iii of EXAMPLE III; McrC was similar to McrC fraction ii of EXAMPLE III). Reactions were loaded onto an agarose gel, with size standards (pBR322 digested with BstNI; NEB #301-1) and the sizes of the various fragments determined from a log-linear plot of cm migration (from a Polaroid photograph) versus known size of size standards. Sizes of fragments larger than the largest size standard were estimated by extrapolation and are indicated by "~". Sizes were lane 1, size standard: 1857, 1060, 929, 383, 121 bp; lane 2, AflIII+McrBC: >4 kb (faint, partial digest product), ~2.5, ~2.2, 1.7, 0.7 kb; lane 3, AflIII: ~2.6, ~2.1 (expected sizes 2.449, 1.912); lane 4, NdeI+McrBC: ~ 2.2, ~2.1, 1.8, 0.4 kb; lane 5, NdeI: ~2.5, ~2.2 kb (expected sizes 2.272, 2.089); lane 6, McrBC: ~2.2, 1.7, 0.93, 0.66, 0.48 kb; lane 7, ScaI: ~3.7, 0.54 (expected sizes 3.822, 0.541); lane 8, ScaI+McrBC: ~2.1, ~1.9, 1.1, 0.66, 0.60, 0.54 kb; lane 9, SspI: ~3.7, 0.28 kb (expected sizes 4.146, 0.215); lane 10, SspI+McrBC: ~2.2, 1.35, 0.66, 0.56 kb.
DNA used was pUC19 linearized at the AflIII site, obtained by standard procedures, and then methylated (0.8 μg) in a reaction containing 8 μl 10 X buffer (for M.AluI, M.HhaI, and M.HpaII this was 10XM.FnuDII buffer: 500 mM Tris[Cl] pH 7.5, 100 mM EDTA, 50 mM β-mercaptoethanol;for M.HaeIII, 500 mM Tris [Cl] pH 8.5; 500 mM NaCl, 10 mM dithiothreitol; for M.MspI, 500 mM Tris, pH 7.5, 500 mM NaCl, 50 mM β-mercaptoethanol; for M.SssI, 500 mM Tris Cl, pH 8.0, 500 mM NaCl, 100 mM EDTA), 8 μl S-adenosylmethionine (32 mM in 5 mM H2 SO4, 10% ethanol) and 4 μl methylase (M.AluI, 5 units/μl; M.HaeIII, 5 units/μl; M.HhaI, 25 units/μl; M.HpaII, 1-5 units/μl,M.MspI, 5 units/μl, M.SssI, 2 units/μl) in a total volume of 82 μl. Methylation reactions were incubated 90 minutes at 37° C., then heat-killed by incubation for 15 minutes at 67°-70° C. These substrates were then distributed to 6 series of 7 tubes for McrBC titration. […]

[3] = test system: DNA from bacteriophages T4αgt βgt dam^h dam1 and T6αgt; experiment: McrBC cleavage of 5-hydroxymethylcytosine-containing phage DNA; type: biochemical, bacteriophages T4 and T6; settings: hmC DNA first treated with EcoRI or SspI, then McrBC with GTP
Experimental: as §1

For “McrBC: DNA endonuclease obtainable from Escherichia coli; components McrBL and McrC, substantially free of McrBS”, the “pH to which the reaction can be lowered with activity detectable” value [1] was “about 5.8”, the “size of fragments produced by cleavage” value ([2]; CAGm4CTG-modified DNA, in the presence of GTP, in situ digestion) was “smaller than 50 kb” and the “degradation of substrate DNA” value ([2]; agarose-embedded cellular DNA of Escherichia coli carrying ppvuIIM1.9, M.PvuII modified (GAm4CGTC)) was “degrades”. The “degradation of substrate DNA” value (methylated DNA; Dcm-modified (CmCWGG) pBR322, pUC19 or bacteriophage lambda DNA) was “does not degrade”, the “cleavage of substrate DNA” value (methylated DNA; M.AluI-methylated pUC19 linearized at the AflIII site) was “cleave” and the “cleavage of substrate DNA” value (methylated DNA; M.HaeIII-methylated (GGmCC) pUC19 linearized at the AflIII site) was “cleaves”. The “cleavage of substrate DNA” value (methylated DNA; M.HhaI-methylated (GmCGC) pBR322) was “cleaves”, the “cleavage of substrate DNA” value (methylated DNA; M.HhaI-methylated pUC19 linearized at the AflIII site) was “cleaves” and the “degradation of substrate DNA” value (methylated DNA; M.HpaII-modified (Cm5CGG) pBR322, pUC19 or bacteriophage lambda DNA) was “does not degrade”. For the same substance, the “cleavage of substrate DNA” value (methylated DNA; M.MspI-modified (mCCGG) pUC19 linearized at the AflIII site) was “cleaves”, the “degradation of substrate DNA” value (methylated DNA; M.SssI modified (mCG) pBR322 and pUC19) was “degrades” and the “degradation of substrate DNA” value (methylated DNA; pBR322, pUC19 or bacteriophage lambda modified by both Dcm and M.HpaII) was “does not degrade”. The “cleavage of substrate DNA” value (methylated DNA; pBR322 DNA methylated by M.AluI (AGm5CT)) was “cleave” and the “size of fragments produced by cleavage” value [3] was “smaller than 700 bp”.
